Test results taken from patent US20210221848A1, “POLYMYXIN DERIVATIVES AND THEIR USE IN COMBINATION THERAPY TOGETHER WITH DIFFERENT ANTIBIOTICS” (priority 2014, published 2021).

Experiments:
E. coli [1] = assay: MIC in the presence of a fixed concentration (2 μg/mL) of Rifampicin; format: cell-based, Escherichia coli; conditions: Rifampicin 2 μg/mL, Table 5D
K. pneumoniae [2] = assay: as above; format: cell-based, Klebsiella pneumoniae; conditions: Rifampicin 2 μg/mL, Table 5D
Procedure: (§1) The inoculum was prepared by making a direct suspension of isolated colonies (selected from an 18-24 hour Mueller-Hinton agar plate) adjusted to the 0.5 McFarland standard. […] The assays were performed in duplicate. […] In cases where the duplicate values varied by less than 2-fold, the lower of the two values is reported. If a variation of greater than 2-fold was observed, the assay was considered non-valid. Several of the compounds were subjected to multiple tests, and where this is the case, the MIC reflects the modal value obtained.

A. baumannii [3] = assay: MIC in the presence of […] of rifampicin; format: cell-based, Acinetobacter baumannii; conditions: for MIC in combination with Rifampicin, A. baumannii ATCC BAA-747: A. baumannii ATCC BAA-747, Table 5D; for MIC in combination with Rifampicin, A. baumannii NCTC 13424: A. baumannii NCTC 13424, Table 5D
Procedure: as §1

[4] = test system: E. coli strains with elevated MICs to Polymyxin B; assay: MIC against strains with elevated MICs to Polymyxin B; format: cell-based, Escherichia coli; conditions: Table 6D
Method in brief: (§2)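 Reported MIC is the lower of duplicates agreeing within 2-fold, or the mode where compounds were tested repeatedly. Assays with greater than 2-fold duplicate variation were rejected. Colonies grown 18-24 hours on Mueller-Hinton agar were suspended to 0.5 McFarland as inoculum.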

[5] = test system: K. pneumoniae strains with elevated MICs to Polymyxin B; assay: as above; format: cell-based, Klebsiella pneumoniae; conditions: Table 6D
Method in brief: as §2

[6] = test system: P. aeruginosa strains with elevated MICs to Polymyxin B; assay: as above; format: cell-based, Pseudomonas aeruginosa; conditions: Table 6D
Method in brief: as §2

[7] = test system: A. baumanii strains with elevated MICs to Polymyxin B; assay: as above; format: cell-based, Acinetobacter baumannii; conditions: Table 6D
Method in brief: as §2

E. coli [8] = conditions: absence of a second agent, Table 6B
K. pneumoniae [9] = conditions: absence of a second agent, Table 6B
P. aeruginosa = conditions: absence of a second agent, Table 6B
A. baumannii [10] = conditions: absence of a second agent, Table 6B

## 2-(2-aminoethyl)- undecanoyl polymyxin B nonapeptide [Example D26]
E. coli [1]
  MIC in combination with Rifampicin, E. coli ATCC 25922: 0.25 micrograms/mL
  MIC in combination with Rifampicin, E. coli NCTC 13441: 1 micrograms/mL
K. pneumoniae [2]
  MIC in combination with Rifampicin, K. pneumoniae ATCC 4352: 0.5 micrograms/mL
  MIC in combination with Rifampicin, K. pneumoniae ATCC BAA-2146: 4 micrograms/mL
A. baumannii [3]
  MIC in combination with Rifampicin, A. baumannii ATCC BAA-747: 2 micrograms/mL
  MIC in combination with Rifampicin, A. baumannii NCTC 13424: 1 micrograms/mL
[4]; strain 059, elevated MIC to Polymyxin B
  MIC E. coli 059: 0.5 micrograms/mL
[4]; strain 060, elevated MIC to Polymyxin B
  MIC E. coli 060: 2 micrograms/mL
[4]; strain 061, elevated MIC to Polymyxin B
  MIC E. coli 061: 4 micrograms/mL
[5]; strain 062, elevated MIC to Polymyxin B
  MIC K. pneumoniae 062: 2 micrograms/mL
[5]; strain 063, elevated MIC to Polymyxin B
  MIC K. pneumoniae 063: 4 micrograms/mL
[5]; strain 064, elevated MIC to Polymyxin B
  MIC K. pneumoniae 064: 0.5 micrograms/mL
[5]; strain 655, elevated MIC to Polymyxin B
  MIC K. pneumoniae 655: 4 micrograms/mL
[6]; strain 066, elevated MIC to Polymyxin B
  MIC P. aeruginosa 066: 1 micrograms/mL
[6]; strain 067, elevated MIC to Polymyxin B
  MIC P. aeruginosa 067: 8 micrograms/mL
[7]; strain 053, elevated MIC to Polymyxin B
  MIC A. baumannii 053: 8 micrograms/mL
[7]; strain 056, elevated MIC to Polymyxin B
  MIC A. baumannii 056: 4 micrograms/mL
[7]; strain 068, elevated MIC to Polymyxin B
  MIC A. baumannii 068: 2 micrograms/mL
[7]; strain 070, elevated MIC to Polymyxin B
  MIC A. baumannii 070: 2 micrograms/mL
E. coli [8]
  MIC, E. coli ATCC 25922: 0.5 micrograms/mL
  MIC, E. coli NCTC 13441: 2 micrograms/mL
K. pneumoniae [9]
  MIC, K. pneumoniae ATCC 4352: 1 micrograms/mL
  MIC, K. pneumoniae ATCC BAA-2146: 2 micrograms/mL
P. aeruginosa
  MIC, P. aeruginosa ATCC 27853: 0.5 micrograms/mL
  MIC, P. aeruginosa CCUG 59347: 0.5 micrograms/mL
A. baumannii [10]
  MIC, A. baumannii ATCC BAA-747: 0.5 micrograms/mL
  MIC, A. baumannii NCTC 13424: 2 micrograms/mL

## (5-Phenyl-piperidine)- 3-carbonyl polymyxin B nonapeptide [Example D7]
E. coli [1]
  MIC in combination with Rifampicin, E. coli ATCC 25922: 0.06 micrograms/mL
  MIC in combination with Rifampicin, E. coli NCTC 13441: 0.5 micrograms/mL
K. pneumoniae [2]
  MIC in combination with Rifampicin, K. pneumoniae ATCC 4352: 0.125 micrograms/mL
  MIC in combination with Rifampicin, K. pneumoniae ATCC BAA-2146: 0.5 micrograms/mL
A. baumannii [3]
  MIC in combination with Rifampicin, A. baumannii ATCC BAA-747: 1 micrograms/mL
  MIC in combination with Rifampicin, A. baumannii NCTC 13424: 0.03 micrograms/mL
E. coli [8]
  MIC, E. coli ATCC 25922: >8 micrograms/mL
  MIC, E. coli NCTC 13441: >8 micrograms/mL
K. pneumoniae [9]
  MIC, K. pneumoniae ATCC 4352: 8 micrograms/mL
  MIC, K. pneumoniae ATCC BAA-2146: >8 micrograms/mL
P. aeruginosa
  MIC, P. aeruginosa ATCC 27853: 2 micrograms/mL
  MIC, P. aeruginosa CCUG 59347: >8 micrograms/mL
A. baumannii [10]
  MIC, A. baumannii ATCC BAA-747: >8 micrograms/mL
  MIC, A. baumannii NCTC 13424: >8 micrograms/mL

## (5-Phenyl-piperidine)- 3-carbonyl polymyxin B nonapeptide [Example D8]
E. coli [1]
  MIC in combination with Rifampicin, E. coli ATCC 25922: ≤0.015 micrograms/mL
K. pneumoniae [2]
  MIC in combination with Rifampicin, K. pneumoniae ATCC 4352: 0.03 micrograms/mL
  MIC in combination with Rifampicin, K. pneumoniae ATCC BAA-2146: 0.06 micrograms/mL
A. baumannii [3]
  MIC in combination with Rifampicin, A. baumannii ATCC BAA-747: 0.03 micrograms/mL
  MIC in combination with Rifampicin, A. baumannii NCTC 13424: ≤0.015 micrograms/mL
E. coli [8]
  MIC, E. coli ATCC 25922: 0.125 micrograms/mL
  MIC, E. coli NCTC 13441: 0.25 micrograms/mL
K. pneumoniae [9]
  MIC, K. pneumoniae ATCC 4352: 0.125 micrograms/mL
  MIC, K. pneumoniae ATCC BAA-2146: 0.5 micrograms/mL
P. aeruginosa
  MIC, P. aeruginosa ATCC 27853: 0.5 micrograms/mL
  MIC, P. aeruginosa CCUG 59347: 1 micrograms/mL
A. baumannii [10]
  MIC, A. baumannii ATCC BAA-747: 0.25 micrograms/mL
  MIC, A. baumannii NCTC 13424: 0.5 micrograms/mL
